Laboratory results from US20200253929A1, “TREATMENT OF EPILEPSY” (priority 2017, published 2020).
Entries after “also recorded” stand apart in the source; their conditions may differ.

Assays:
[1] = system: zebrafish larvae; experiment: Zebrafish toxicity evaluation (maximum tolerated concentration); format: in vivo, Danio rerio; conditions: up to 18 hours exposure, 100 μg/mL used where no MTC was reached
Method: (§1) In case no MTC was reached, 100 μg/mL was used as the test concentration. In line with studies previously reported [Baraban et al. (2005) Neurosci 131, 759-768; Afrikanova et al. (2013) PLoS One 8, e54166], addition of the GABAA-receptor antagonist PTZ to the swimming water of 7 days post-fertilization (dpf) zebrafish larvae strongly elevated larval locomotion (p≤0.001) (FIGS. 2 and 3) as a result of induced seizures (or seizure-like behavior) that were recognized as typical high-speed swimming, whirlpool-like circling, clonus-like seizures, and loss of posture, as previously described in Baraban et al cited above.
Maximum tolerated concentration (MTC) was determined prior to further experiments and used as the highest test concentration. MTC was investigated by exposing 12 larvae of 6 days post-fertilization (dpf) to a range of concentrations in a 100 μL volume during 18 hours. The following parameters were investigated after 2 and 18 hours of exposure: touch response, morphology, posture, edema, signs of necrosis, swim bladder, and heartbeat. […] In case MTC was not reached, 100 μg/mL was used as the highest test concentration.

[2] = system: PTZ-induced seizures in zebrafish larvae; experiment: Zebrafish PTZ seizure model, behavioral analysis; format: in vivo, Danio rerio; conditions: at MTC, 2 or 18 hours incubation (not specified per compound)
Method: To investigate whether the isolated compounds display antiseizure activity, they were tested in the zebrafish PTZ seizure model after both an acute (2 hours) and chronic (18 hours) incubation time at their maximum tolerated concentration (MTC) (Table 1, FIG. 1).
as §1
Experimental procedure was described in Afrikanova et al.(2013) PLoS One 8, e54166 and Orellana-Paucar et al. (2012) Epilepsy Behav 24, 14-22. In brief, a single 7 dpf larva (in case of 2 hours incubation) or 6 dpf larva (in case of 18 hours incubation) was placed in each well of a 96-well plate and treated with either VHC (1% DMSO) or compound (1% DMSO) in a 100 μL volume. Larvae were incubated in dark for 2 or 18 hours at 28° C., whereafter 100 μL of either VHC (embryo medium) or 40 mM PTZ (dissolved in embryo medium, 20 mM working concentration) was added to each well. Next, within 5 min the 96-well plate was placed in an automated tracking device (ZebraBox Viewpoint, France) and larval behavior was video recorded for 30 min. The complete procedure was performed in dark conditions using infrared light. Total locomotor activity was recorded by ZebraLab software (Viewpoint, France) and expressed in actinteg units, which is the sum of pixel changes detected during the defined time interval (5 min). Larval behavior was depicted as mean actinteg units/5 min during the 30 min recording period and over 5 min time intervals. Data are expressed as mean±SD or as mean ±SEM when the means of independent experiments were pooled.

[3] = system: NMRI mice; experiment: Mouse 6-Hz (44 mA) psychomotor seizure model; format: in vivo
Description: Although the zebrafish model has a high degree of genetic, physiological and pharmacological conservation^13, it is more distinct from humans than mammals. Therefore, we were interested to see if the observed antiseizure properties of azaspirofuran A and pseurotin A2 would translate to a rodent model. The mouse 6-Hz (44 mA) psychomotor seizure model was chosen, because it can detect compounds with novel antiseizure mechanisms and with potential against drug-resistant seizures [Barton et al. (2001) Epilepsy Res 47, 217-227; Wilcox et al. (2013) Epilepsia 54 S4, 24-34]. In this model drug-resistant focal impaired awareness seizures [Fisher et al. (2017) Epilepsia 58, 531-542], previously referred to as complex partial or psychomotor seizures [Holcomb and Dean (2011) Psychomotor Seizures, In Encyclopedia of Child Behavior and Development (Goldstein, S., and Naglieri, J. A., Eds.), pp 1191-1192, Springer US, Boston, Mass.], are induced by low frequency, long duration corneal electrical stimulation (6 Hz, 0.2 ms rectangular pulse width, 3 s duration, 44 mA) and are characterized by stun, twitching of the vibrissae, forelimb clonus, and Straub tail. […] Stimulated mice with a seizure duration shorter than 27 seconds were thus considered to be protected. […] Besides, this study provides another example of the translation of results from zebrafish to rodent seizure models.
Experimental procedure was described in Copmans et al. (2018) Neurochem. Int. 112, 124-133. before Buenafe et al. cited above; Orellana-Paucar cited above. In brief, NMRI mice (average weight 28 g, range 23-32 g) were randomly divided into control and treatment groups (n=5-10). 50 μL (injection volume was adjusted to the individual weight) of VHC (PEG200:DMSO:water; 0.25:0.25:0.5) or treatment (an ASD or test compound dissolved in VHC) was i.p. injected in mice and after 30 or 120 (in case of phenytoin, as reported by Barton et al. cited above) min psychomotor seizures were induced by low frequency, long duration corneal electrical stimulation (6 Hz, 0.2 ms rectangular pulse width, 3 s duration, 44 mA) using an ECT Unit 5780 (Ugo Basile, Comerio, Italy). Mice were manually restrained and a drop of ocular anesthetic (0.5% lidocaine) was applied to the corneas before stimulation. Following electrical current stimulation, the mouse was released in a transparent cage for behavioral observation, which was video-recorded. […] In addition, facial and mouth jerking as well as head nodding were observed occasionally. Mice displaying normal exploratory and locomotion behavior within a time period of 26 seconds were considered to be protected against the induced psychomotor seizures. Seizure durations were measured during the experiment by experienced researchers, familiar with the different seizure behaviors. In addition, seizure durations were determined by blinded video analysis to confirm or correct the initial observations. Data are expressed as mean±SD.

[4] = system: PTZ-induced epileptiform brain activity in zebrafish larvae; experiment: Zebrafish PTZ seizure model, local field potential recordings (electrophysiology); format: in vivo, Danio rerio; conditions: vs VHC+PTZ
Description: To determine whether azaspirofuran A and pseurotin A2 can ameliorate the PTZ-induced hyperexcitable state of the brain that is characterized by epileptiform discharges, local field potential (LFP) recordings were non-invasively measured from the midbrain (optic tectum) of zebrafish larvae [Zdebik et al. (2013) PLoS One 8, e79765; Britton et al. (2016) In Electroencephalography (EEG): An Introductory Text and Atlas of Normal and Abnormal Findings in Adults, Children, and Infants (St. Louis and Frey, Eds.), Chicago]. To that end larvae were treated with either VHC or test compound (MTC and optimal incubation time were used) followed by a 15 min during exposure to PTZ or VHC prior to the electrophysiology measurements (FIG. 4). […] Thus, both compounds not only ameliorate PTZ-induced seizures but are likely to do so by lowering the PTZ-induced hyperexcitable state of the brain.
Experimental procedure was described before [Zdebik et al. (2013) PLoS One 8, e79765; Sourbron et al. (2017) Front. Pharmac. 8, 191; Copmans et al. (2018) Neurochem. Int. 112, 124-133.]. Non-invasive LFP recordings were measured from the midbrain (optic tectum) of 7 dpf zebrafish larvae pre-incubated with VHC only, PTZ only, compound and VHC, or compound and PTZ. Larvae were incubated for approximately 2 or 18 hours with VHC (1% DMSO) or compound (1% DMSO) in a 100 μL volume. After incubation, 100 μL of VHC (embryo medium) or 40 mM PTZ (dissolved in embryo medium, 20 mM working concentration) was added to the well for 15 min prior to recording. These steps occurred at 28° C., while further manipulation and electrophysiological recordings occurred at room temperature (21° C.). The larva was embedded in 2% low melting point agarose (Invitrogen) and the signal electrode (an electrode inside a soda-glass pipet (1412227, Hilgenberg) pulled with a DMZ Universal Puller (Zeitz, Germany), diameter±20 microns, containing artificial cerebrospinal fluid (ACSF: 124 mM NaCl, 10 mM glucose, 2 mM KCl, 2 mM MgSO4, 2 mM CaCl2, 1.25 mM KH2PO4, and 26 mM NaHCO3, 300-310 mOsmols)) was positioned on the skin covering the optic tectum. A differential extracellular amplifier (DAGAN, USA) amplified the voltage difference between the signal (measured by the signal electrode) and the reference electrode. The differential signal was band pass filtered at 0.3-300 Hz and digitized at 2 kHz via a PCI-6251 interface (National instruments, UK) using WinEDR (John Dempster, University of Strathclyde, UK). A grounding electrode grounded the electrical system. All electrodes were connected with ACSF. Each recording lasted 600 seconds. Manual analysis was completed by quantification of the number, cumulative duration, and mean duration of epileptiform-like events with Clampfit 10.2 software (Molecular Devices Corporation, USA). An electrical discharge was considered epileptiform if it was a poly-spiking event comprising at least 3 spikes with a minimum amplitude of three times the baseline amplitude and a duration of at least 100 milliseconds. Data are expressed as mean±SD for the number and cumulative duration of epileptiform events and as mean±SEM for the mean duration of events.

[5] = MTC and optimal incubation time, 10 min recording

Row | Molecule | MTC (maximum tolerated concentration) [1] | PTZ-induced seizures (seizure-like behavior) [2] | other results
1 | 11-O-methylpseurotin A | 100 µg/mL | less pronounce reduction in PTZ-induced seizures | PTZ-induced seizures (seizure-like behavior) ([2]; listed as 11-Omethylpseurotin A): not active
2 | CC/C=C\C(OC(=O)c1ccccc1N)C(O)C1=C(C)C(=O)C2(O1)C(=O)NC(OC)(C(=O)c1ccccc1)C2O (centres unmarked) [11-anthranilyl-Pseurotin A] | 100 µg/mL | less pronounce reduction in PTZ-induced seizures | –
3 | CCc1ccc(C2=C(C)C(=O)[C@]3(O2)C(=O)N[C@@](O)(C(=O)c2ccccc2)[C@@H]3O)o1 [azaspirofuran B] | 12.5 µg/mL | – | –
4 | O=C1NC(=O)C(c2ccccc2)(c2ccccc2)N1 [phenytoin, reference compound] | – | – | response of seizures ([3]; 10 mg/kg i.p., 120 min before electrical stimulation): limited non-significant response
5 | CC/C=C\[C@H](O)[C@H](O)C1=C(C)C(=O)[C@]2(O1)C(=O)N[C@@](OC)(C(=O)c1ccccc1)[C@@H]2O [pseurotin A] | 100 µg/mL | not active | mean duration of epileptiform events ([4]; 100 μg/mL, 18 hours): significantly lower the mean duration; cumulative duration of epileptiform events [4, 5]: non-significantly lower; number of epileptiform events [4, 5]: non-significantly lower
6 | CCC(O)C=C[C@H](O)C1=C(C)C(=O)[C@]2(O1)C(=O)N[C@@](OC)(C(=O)c1ccccc1)[C@@H]2O (some centres unmarked) [pseurotin D] | 100 µg/mL | less pronounce reduction in PTZ-induced seizures; also recorded: not active | –
7 | CC/C=C\[C@H](O)[C@H](O)C1=C(C)C(=O)[C@]2(O1)C(=O)N[C@](O)(C(=O)c1ccccc1)[C@@H]2O [pseurotin F1] | 50 µg/mL | less pronounce reduction in PTZ-induced seizures | –
8 | CCCC(CCC)C(=O)O [valproate, reference compound] | – | – | mean seizure duration ([3]; 300 mg/kg i.p., 30 min before electrical stimulation): 4 s
